# Assay results reported in US7932246B2, “Histone deacetylase inhibitors” (Chroma Therapeutics Ltd., priority 2005, dated 2011).
# Experiments:
# [1] = target: histone deacetylase activity (HeLa nuclear extract); assay: HDAC fluorescent activity assay (Biomol, Fluor de Lys substrate); type: biochemical; conditions: IC50 range
# Protocol: The ability of compounds to inhibit histone deacetylase activities was measured using the commercially available HDAC fluorescent activity assay from Biomol. In brief, the Fluor de Lys™ substrate, a lysine with an epsilon-amino acetylation, is incubated with the source of histone deacetylase activity (HeLa nuclear extract) in the presence or absence of inhibitor. Deacetylation of the substrate sensitises the substrate to Fluor de Lys™ developer, which generates a fluorophore.
# Data are expressed as a percentage of the control, measured in the absence of inhibitor, with background signal being subtracted from all samples, as follows:— % activity=[(S^i−B)/(S^o−B)]×100 where S^i is the signal in the presence of substrate, enzyme and inhibitor, S^o is the signal in the presence of substrate, enzyme and the vehicle in which the inhibitor is dissolved, and B is the background signal measured in the absence of enzyme.
# Histone deacetylase activity from crude nuclear extract derived from HeLa cells was used for screening. The preparation, purchased from 4C (Seneffe, Belgium), was prepared from HeLa cells harvested whilst in exponential growth phase. The nuclear extract is prepared according to Dignam JD1983 Nucl. Acid. […] The final buffer composition was 20 mM Hepes, 100 mM KCl, 0.2 mM EDTA, 0.5 mM DTT, 0.2 mM PMSF and 20% (v/v) glycerol.
# HeLa cells = assay: HeLa cell inhibition assay (SRB cell viability); type: cell-based; conditions: Homo sapiens, HeLa, 72 h, IC50 range
# Protocol: HeLa cells growing in log phase were harvested and seeded at 1000 cells/well (200 μl final volume) into 96-well tissue culture plates. Following 24 h of cell growth cells were treated with compounds (final concentration of 20 μM). Plates were then re-incubated for a further 72 h before a sulphorhodamine B (SRB) cell viability assay was conducted according to Skehan 1990 J Natl Canc Inst 82, 1107-1112.
# (§1) Data were expressed as a percentage inhibition of the control, measured in the absence of inhibitor, as follows:— % inhibition=100−[(S^i/S^o)×100] where S^i is the signal in the presence of inhibitor and S^o is the signal in the presence of DMSO.
# IC50 values were determined by non-linear regression analysis, after fitting the results of eight data points to the equation for sigmoidal dose response with variable slope (% activity against log concentration of compound), using Graphpad Prism software.
# (§2) IC50 results were allocated to one of 3 ranges as follows: […]
# U937 = U937 cell inhibition assay (WST-1 cell viability); type: cell-based; conditions: Homo sapiens, U-937; U937 cells, 72-96 h, WST-1 assay, IC50 range
# Protocol: (§3) Cancer cell lines (U937 and HUT) growing in log phase were harvested and seeded at 1000-2000 cells/well (100 μl final volume) into 96-well tissue culture plates. Following 24 h of growth cells were treated with compound. Plates were then re-incubated for a further 72-96 h before a WST-1 cell viability assay was conducted according to the suppliers (Roche Applied Science) instructions.
# as §1
# (§4) Dose response curves were generated from 8 concentrations (top final concentration 10 μM, with 3-fold dilutions), using 6 replicates.
# (§5) IC50 values were determined by non-linear regression analysis, after fitting the results to the equation for sigmoidal dose response with variable slope (% activity against log concentration of compound), using Graphpad Prism software.
# as §2
# HUT = HUT cell inhibition assay (WST-1 cell viability); type: cell-based; conditions: HUT cells, 72-96 h, WST-1 assay, IC50 range
# Protocol: as §3, §1, §4, §5, §2
IC50 [1] [nM],IC50 (HeLa cells) [nM],IC50 (U937) [nM],Structure (SMILES),IC50 (HUT) [nM]
< 100,> 3300,> 3300,"O=C(Cc1ccc(N2CCCS2(=O)=O)cc1)NC1C2CN(c3ncc(C(=O)NO)cn3)CC21 (stereo not drawn) [Example 6, N-Hydroxy 2-(6-{2-[4-(1,1-dioxoisothiazolidin-2-yl)phenyl]acetylamino}-3-azabicyclo[3.1.0]hex-3-yl)pyrimidine-5-carboxamide]",> 3300
< 100,331 to 3300,> 3300,"O=C(Cc1ccsc1)NC1C2CN(c3ncc(C(=O)NO)cn3)CC21 (stereo not drawn) [Example 11, N-Hydroxy 2-{6-[(thien-3-ylacetyl)amino]-3-azabicyclo[3.1.0]hex-3-yl}pyrimidine-5-carboxamide]",331 to 3300
< 100,331 to 3300,331 to 3300,"COc1ccc(CN2CC3CN(c4ncc(C(=O)NO)cn4)CC3C2)cc1 (stereo not drawn) [Example 84, N-Hydroxy 2-[5-(4-methoxybenzyl)hexahydropyrrolo[3,4-c]pyrrol-2(1H)-yl]pyrimidine-5-carboxamide]",< 330
< 100,< 330,< 330,"O=C(NO)c1cnc(N2CC3C(C2)C3NCc2ccc3ccccc3n2)nc1 (stereo not drawn) [Example 43, N-Hydroxy 2-{6-[(quinolin-2-ylmethyl)amino]-3-azabicyclo[3.1.0]hex-3-yl}pyrimidine-5-carboxamide]",< 330
< 100,< 330,< 330,"CCN(CC)CCC(=O)N(Cc1ccc2ccccc2c1)C1C2CN(c3ncc(C(=O)NO)cn3)CC21 (stereo not drawn) [Example 59, N-Hydroxy 2-{6-[(3-diethylaminopropionyl)naphthalen-2-ylmethylamino]-3-azabicyclo[3.1.0]hex-3-yl}-pyrimidine-5-carboxamide]",< 330
< 100,331 to 3300,< 330,"CC(CNC1C2CN(c3ncc(C(=O)NO)cn3)CC21)c1ccccc1 (stereo not drawn) [Example 24, N-Hydroxy 2-{6-[(2-phenylpropyl)amino]-3-azabicyclo[3.1.0]hex-3-yl}pyrimidine-5-carboxamide]",< 330
101 to 1000,> 3300,331 to 3300,"O=C(NO)c1cnc(N2CCC3(CC2)CCN(S(=O)(=O)c2ccc4ccccc4c2)CC3)nc1 [Example 86, N-Hydroxy 2-[9-(naphthalene-2-sulfonyl)-3,9-diaza-spiro[5.5]undec-3-yl]pyrimidine-5-carboxamide]",331 to 3300
–,331 to 3300,331 to 3300,"O=C(CCCCCc1ccccc1)NC1C2CN(c3ncc(C(=O)NO)cn3)CC21 (stereo not drawn) [Example 8, N-Hydroxy 2-[6-(6-phenylhexanoyl)amino-3-azabicyclo[3.1.0]hex-3-yl]-pyrimidine-5-carboxamide]",< 330
101 to 1000,331 to 3300,331 to 3300,"O=C(NO)c1ccc(N2CC3C(C2)C3NCc2ccc3ccccc3c2)cc1 (stereo not drawn) [Example 88, N-Hydroxy 4-{6-[(naphthalen-2-ylmethyl)-amino]-3-azabicyclo[3.1.0]hex-3-yl}-benzamide]",331 to 3300
< 100,< 330,< 330,"O=C(NO)c1cnc(N2CC3C(C2)C3Nc2nccc3ccccc23)nc1 (stereo not drawn) [Example 68, N-Hydroxy 2-[6-(isoquinolin-1-ylamino)-3-azabicyclo[3.1.0]hex-3-yl]pyrimidine-5-carboxamide]",< 330
< 100,331 to 3300,< 330,"O=C(NO)c1cnc(N2CC3C(C2)C3NS(=O)(=O)c2cc(C(F)(F)F)cc(C(F)(F)F)c2)nc1 (stereo not drawn) [Example 3, N-Hydroxy 2-(6-{[(3,5-bistrifluoromethylphenyl)sulfonyl]amino}-3-azabicyclo[3.1.0]hex-3-1/1)pyrimidine-5-carboxamide]",< 330
< 100,331 to 3300,< 330,"O=C(NO)c1cnc(N2CC3C(C2)C3NCCC(c2ccccc2)c2ccccc2)nc1 (stereo not drawn) [Example 39, N-Hydroxy 2-[6-(3,3-diphenylpropylamino)-3-azabicyclo[3.1.0]hex-3-yl]pyrimidine-5-carboxamide]",< 330
< 100,< 330,< 330,"O=C(NO)c1cnc(N2CC3C(C2)C3NCc2ccc(Cl)cc2)nc1 (stereo not drawn) [Example 30, N-Hydroxy 2-{6-[(4-chlorobenzyl)amino]-3-azabicyclo[3.1.0]hex-3-yl}pyrimidine-5-carboxamide]",< 330
< 100,331 to 3300,331 to 3300,"O=C(NO)c1cnc(N2CC3C(C2)C3NC(=O)C2(c3ccccc3)CC2)nc1 (stereo not drawn) [Example 9, N-Hydroxy 2-(6-{[(1-phenylcyclopropyl)carbonyl]amino}-3-azabicyclo[3.1.0]hex-3-yl)pyrimidine-5-carboxamide]",331 to 3300
< 100,331 to 3300,331 to 3300,"O=C(NO)c1cnc(N2CC3C(C2)C3N(CCO)S(=O)(=O)c2ccc3ccccc3c2)nc1 (stereo not drawn) [Example 49, N-Hydroxy 2-{6-[(2-hydroxyethyl)(naphthalene-2-sulfonyl)amino]-3-azabicyclo[3.1.0]hex-3-yl}pyrimidine-5-carboxamide]",331 to 3300
< 100,331 to 3300,331 to 3300,"O=C(NO)c1cnc(N2CC3C(C2)C3NC(=O)C2CCCCC2)nc1 (stereo not drawn) [Example 12, N-Hydroxy 2-{6-[(cyclohexylcarbonyl)amino]-3-azabicyclo[3.1.0]hex-3-yl}pyrimidine-5-carboxamide]",331 to 3300
–,331 to 3300,331 to 3300,"O=C(NO)c1cnc(N2CC3C(C2)C3NC(=O)c2ccccc2)nc1 (stereo not drawn) [Example 13, N-Hydroxy 2-[6-(benzoylamino)-3-azabicyclo[3.1.0]hex-3-yl]pyrimidine-5-carboxamide]",331 to 3300
< 100,–,< 330,"O=C(NO)c1cnc(N2CC3C(C2)C3NCc2ccc(Br)cc2)nc1 (stereo not drawn) [Example 36, N-Hydroxy 2-{6-[(4-bromobenzyl)amino]-3-azabicyclo[3.1.0]hex-3-yl}pyrimidine-5-carboxamide]",< 330
–,331 to 3300,331 to 3300,"O=C(NO)c1cnc(N2CC3C(C2)C3NC(=O)c2ccc3sccc3c2)nc1 (stereo not drawn) [Example 17, N-Hydroxy 2-{6-[(1-benzothien-5-ylcarbonyl)amino]-3-azabicyclo[3.1.0]hex-3-yl}pyrimidine-5-carboxamide]",< 330
–,< 330,< 330,"O=C(NO)c1cnc(N2CC3C(C2)C3NCC2CCCCC2)nc1 (stereo not drawn) [Example 25, N-Hydroxy 2-{6-[(cyclohexylmethyl)amino]-3-azabicyclo[3.1.0]hex-3-yl}pyrimidine-5-carboxamide]",< 330
< 100,–,< 330,"CN(C)CCCN(C1C2CN(c3ncc(C(=O)NO)cn3)CC21)S(=O)(=O)c1ccc2ccccc2c1 (stereo not drawn) [Example 50, N-Hydroxy 2-{6-[(3-dimethylaminopropyl)(naphthalene-2-sulfonyl)amino]-3-azabicyclo[3.1.0]hex-3-yl}pyrimidine-5-carboxamide]",< 330
–,> 3300,> 3300,"O=C(NO)c1cnc(N2CC3C(C2)C3NS(=O)(=O)c2cccs2)nc1 (stereo not drawn) [Example 2, N-Hydroxy 2-{6-[(thien-2-ylsulfonyl)amino]-3-azabicyclo[3.1.0]hex-3-yl}pyrimidine-5-carboxamide]",> 3300
–,331 to 3300,331 to 3300,"CN(C)CCN(C1C2CN(c3ncc(C(=O)NO)cn3)CC21)S(=O)(=O)c1ccc2ccccc2c1 (stereo not drawn) [Example 52, N-Hydroxy 2-{6-[(2-dimethylaminoethyl)(naphthalene-2-sulfonyl)-amino]-3-azabicyclo[3.1.0]hex-3-yl}pyrimidine-5-carboxamide]",< 330
–,331 to 3300,< 330,"COc1ccc(CNC2C3CN(c4ncc(C(=O)NO)cn4)CC32)cc1 (stereo not drawn) [Example 21, N-Hydroxy 2-{6-[(4-methoxybenzyl)amino]-3-azabicyclo[3.1.0]hex-3-yl}pyrimidine-5-carboxamide]",< 330
